Results: US20040235784A1, “Combination preparations of 3-n-formylhydroxylaminopropyl phosphonic acid derivatives or 3-n-acetylhydroxylaminopropyl phosphonic acid derivatives combined with specific pharmaceutical active agents” (priority 2000, published 2004)

System: Plasmodium falciparum strains Dd2, 3D7 and HB3
Assay: Sensitivity of Plasmodium falciparum to fosmidomycin in combination with different compounds, semi-automatic test by [3H]-hypoxanthin incorporation into parasite DNA
Format: cell-based
Conditions: drug in combination with fosmidomycin, sum FIC <1 synergism, >1 antagonism, =1 addition
Method: The IC50-values of fosmidomycin and the respective combination partner were determined for the single compounds and in different ratios of mixture on microtitreplates. The results were defined as sum of fractional inhibitory concentration (sum fractional inhibitory concentration, FIC):
sum FIC=IC50 of fosmidomycin in mixture/IC50 of fosmidomycin alone+IC50 of the combination partners in mixture/IC50 of combination partner alone
Sum FIC-values <1 represent synergism, values >1 antargonism and values=1 addition.

For CC[C@H]1OC(=O)[C@H](C)[C@@H](O[C@H]2C[C@@](C)(OC)[C@@H](O)[C@H](C)O2)[C@H](C)[C@@H](O[C@@H]2O[C@H](C)C[C@H](N(C)C)[C@H]2O)[C@](C)(O)C[C@@H](C)CN(C)[C@H](C)[C@@H](O)[C@]1(C)O [azithromycin], the “sum FIC” value (P. falciparum strain 3D7) was 0.74, the “sum FIC” value (P. falciparum strain Dd2) was 0.86 and the “sum FIC” value (P. falciparum strain HB3) was 0.85.

In the case of CCCCN(CCCC)CC(O)c1cc(Cl)cc2c1-c1ccc(Cl)cc1/C2=C/c1ccc(Cl)cc1 (stereo not drawn) [lumefantrin], the “sum FIC” value (P. falciparum strain 3D7) was 1.21, the “sum FIC” value (P. falciparum strain Dd2) was 1.20 and the “sum FIC” value (P. falciparum strain HB3) was 1.08.
